Residue numbers refer to the chain shown, from its start. pIC50: −log10 of the molar value. Like-named read-outs stand apart in the source and are kept apart here.

What is called pIC50 is the negative decadic logarithm of the IC50, by convention in mol/L. Usually inhibition stands for the change of the read-out against control, counted positive when it falls.

The target in one assay is T1, LOXL2 (Homo sapiens, UniProt Q9Y4K0).
T1 construct: purchased R&D Systems/Bio-techne
T1 sequence (Q9Y4K0 26-774): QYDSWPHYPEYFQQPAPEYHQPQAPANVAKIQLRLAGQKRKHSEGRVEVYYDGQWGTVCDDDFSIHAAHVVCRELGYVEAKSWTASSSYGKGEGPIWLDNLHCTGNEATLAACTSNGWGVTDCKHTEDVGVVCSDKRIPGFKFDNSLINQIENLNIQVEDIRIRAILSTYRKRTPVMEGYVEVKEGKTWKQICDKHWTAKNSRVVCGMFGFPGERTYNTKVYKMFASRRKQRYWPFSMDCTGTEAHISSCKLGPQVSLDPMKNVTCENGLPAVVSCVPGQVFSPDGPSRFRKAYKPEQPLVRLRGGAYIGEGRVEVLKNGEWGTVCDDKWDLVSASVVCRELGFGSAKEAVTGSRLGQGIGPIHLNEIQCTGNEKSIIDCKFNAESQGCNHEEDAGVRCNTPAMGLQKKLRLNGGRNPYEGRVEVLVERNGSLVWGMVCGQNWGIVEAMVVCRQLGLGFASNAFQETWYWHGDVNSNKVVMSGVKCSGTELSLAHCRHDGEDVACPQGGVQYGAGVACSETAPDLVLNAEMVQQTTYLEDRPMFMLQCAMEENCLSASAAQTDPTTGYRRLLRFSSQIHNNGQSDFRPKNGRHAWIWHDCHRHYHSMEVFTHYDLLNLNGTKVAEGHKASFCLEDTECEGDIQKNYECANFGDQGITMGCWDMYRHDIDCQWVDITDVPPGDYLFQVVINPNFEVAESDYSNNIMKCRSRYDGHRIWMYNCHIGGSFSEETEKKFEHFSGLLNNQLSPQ
The assay can be described thus: LOX isoform activity assay (ROS Glo), LOXL2. It is filed as biochemical. The method, then: (§1) LOX was extracted from pig skin by previously described methods (Shackleton and Hulmes, 1990). LOXL2 and LOXL3 were obtained from R&D Systems/Bio-techne. The Promega ROS Glo assay kit (G8821) was used to assess enzyme activity. Overall, test compound was added to either 384 well assay plates (Greiner) using a Labcyte Echo™ Acoustic Handler or to 96 well plates for a final assay concentration of 100, 30, 10, 3, 1, 0.3, 0.1, 0.03, 0.01 and 0.003 μM final assay concentration. Enzymes were diluted according to specific pre-determined activity in assay buffer (100 mM CHES, pH 9, 0.05% (w/v) pluronic F-127, 0.5% (w/v) BSA, 1 mM MgCl2, 1 M urea, 100 mM NaCl) and added to the plate. For LOXL2, the mixture was incubated for 20 min, 1 h or 20 h; for LOX and LOXL3, incubation time was 1 h. Cadaverine and H2O2 substrate were then added to each well (final assay concentration 19.56 mM and 25 μM respectively) and the plates were incubated for 1.5 h (for LOX) or 1 h (for LOXL2 and LOXL3) at room temperature. Finally, luciferin detection reagent was added and plates were incubated for 20 min at room temperature, protected from light. Luminescence was measured using a BMG LABTECH PHERAstar FS reader and resulting IC50 values were calculated using GraphPad Prism software.
In another setting, LOXL2 enzyme was diluted according to specific pre-determined activity in assay buffer (100 mM CHES, pH 9, 0.05% (w/v) pluronic F-127, 0.5% (w/v) BSA, 1 mM MgCl2, 1 M urea, 100 mM NaCl). Overall, 0.5 μl test compound was added to 40 μl assay buffer+LOXL2 at 100, 30, 10, 3, 1, 0.3, 0.1, 0.03, 0.01 and 0.003 μM (final concentration) in a 96-well white polystyrene, flat bottom plates (Fisher) and incubated for the indicated time at room temperature. 10 μl of assay buffer containing 97.8 mM cadaverine and 125 μM H2O2 substrate (final assay concentration 19.56 mM and 25 μM respectively) were added to each well and plates were incubated for 1 h at room temperature. Finally, 50 μl per well luciferin detection reagent was added and plates were incubated for 20 min at room temperature, protected from light. Luminescence was measured with an integration time of 500 ms per well using a SpectaMax M5 plate reader and resulting IC50 values were calculated using GraphPad Prism software.

Assay [1] has as its target T2, LOX (Mus musculus, UniProt P28301).
T2 construct: Full length LOX cDNA was then PCR cloned into pEGFP-N1 (Clonetech), or biosensor vector proGFP2—N1; expressed in transfected cells; host or cells: MDCK cells grown as cysts on Matrigel
T2 sequence (P28301 163-411): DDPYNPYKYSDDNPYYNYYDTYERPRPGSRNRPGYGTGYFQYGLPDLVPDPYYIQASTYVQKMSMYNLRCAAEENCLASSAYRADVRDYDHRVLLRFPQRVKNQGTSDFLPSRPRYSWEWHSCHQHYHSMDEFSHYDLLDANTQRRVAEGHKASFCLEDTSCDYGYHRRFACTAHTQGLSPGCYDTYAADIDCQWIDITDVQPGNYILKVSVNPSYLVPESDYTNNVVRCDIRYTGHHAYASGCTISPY
Nature of the assay: LOX activity in cysts assay (roGFP2 LOX biosensor in MDCK cysts). The settings on record: LOX, DMSO = 0%, BAPN 1 mM = 100% inhibition. In kind it is cell-based. How it is done: All cell lines used in this study were purchased from American Type Culture Collection (ATCC). Mycoplasma contamination was routinely monitored by PCR. Cells used were not found to be Mycoplasma positive. MDCK cell lines were cultured in Dulbecco's Modified Eagle Medium (DMEM) supplemented with 10% fetal bovine serum (FBS) and 1% Penicillin Streptomycin solution (Pen Strep). For GFP constructs transfection in MDCK cells, lipofectamine 3000 was used according to manufactures protocols. Cells were either selected with G418 (Life Technologies) at 5 mg/ml. All cell culture reagents were purchased from Life Technologies.
To produce MDCK cysts, cells were cultured on Matrigel (Corning) with 2% Matrigel supplemented in DMEM with 10% FBS. Cysts were allowed to form for 10 days before subsequent studies.
Mouse LOX cDNA was purchased from OriGene. Full length LOX cDNA was then PCR cloned into pEGFP-N1 (Clonetech), or biosensor vector proGFP2—N1 (Hanson, 2004) using the following primers, […] (forward primer) and […] (reverse primer). For the insertion into pEGFP-N1 or proGFP2—N1, Nhel and Xhol restriction sites were added to forward and reverse primers accordingly. Mutant LOX constructs were made using QuickChange II site-directed mutagenesis kit (Agilent Technologies) following manufacture's protocol using LOX-GFP as template. To generate, roGFP2 versions of LOX mutant constructs, LOX mutant cDNA was transferred from pEGFP-N1 to proGFP2—N1 using Nhel and Xhol.
All photomicrographs were taken with a Leica TCS SP8 X confocal system. For LOX biosensor imaging, live MDCK cysts were used. The oxidised biosensor was excited using a 405 nm laser, while the reduced biosensor was excited with a 488 nm laser. Emission of the biosensor was recorded at 500 nm-530 nm range using sequential scans. Ratio images were generated following a published protocol {Kardash, 2011 #376}. Note, while the published protocol generates YFP/CFP ratio images, we used it to generate Oxidised/Reduced (roGFP2 ratio) ratio images. The roGFP2 ratio at the basal surface of MDCK cysts was used to indicate LOX inhibition. LOX inhibitors were added 30 min prior to imaging.
For clarity, readout for DMSO treated cysts represents 0% inhibition (no inhibition) and readout for BAPN at 1 mM is used as 100% inhibition (full inhibition).

Assay [2] addresses T3, monoamine oxidase A (MAO-A) (Homo sapiens, UniProt P21397).
T3 construct: purchased Promega V1452
T3 sequence (P21397 1-527): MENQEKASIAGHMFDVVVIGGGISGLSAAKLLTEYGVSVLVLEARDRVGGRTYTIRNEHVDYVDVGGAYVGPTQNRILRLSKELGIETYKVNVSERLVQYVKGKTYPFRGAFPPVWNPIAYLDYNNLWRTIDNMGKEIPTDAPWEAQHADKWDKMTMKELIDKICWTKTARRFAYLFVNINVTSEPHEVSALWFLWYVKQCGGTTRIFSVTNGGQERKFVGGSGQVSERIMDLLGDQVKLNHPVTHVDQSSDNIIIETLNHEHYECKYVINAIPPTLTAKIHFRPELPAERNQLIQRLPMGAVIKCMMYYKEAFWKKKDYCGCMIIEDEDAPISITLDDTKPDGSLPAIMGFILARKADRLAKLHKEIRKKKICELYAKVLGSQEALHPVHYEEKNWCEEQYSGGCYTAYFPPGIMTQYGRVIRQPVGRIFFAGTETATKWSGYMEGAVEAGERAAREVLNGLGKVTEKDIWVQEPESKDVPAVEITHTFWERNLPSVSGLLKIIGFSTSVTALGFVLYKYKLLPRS
The assay can be described thus: Amine oxidase activity assay (MAO-Glo), MAO-A. It is filed as biochemical. How it is done: (§2) The Promega MAO-Glo assay kit (V1402) was used to assess monoamine oxidase A (MAO-A) and monoamine oxidase B (MAO-B) activity. MAO substrate was prepared at 80 μM with the specific MAO-A/B reaction buffer. Overall, 0.5 μl test compound was added to 25 μl MAO substrate at 100, 30, 10, 3, 1, 0.3, 0.1, 0.03, 0.01 and 0.003 μM (final concentration) in a 96-well white, flat bottom plate. Overall, 25 μl of 1:520 dilution of MAO-A enzyme (Promega, V1452) or 25 μl of 1:52 dilution of MAO-B enzyme (Sigma, M7441) in specific MAO-A/B reaction buffer was added to each well (enzyme prepared at 2×final concentration) and plates were incubated for 1 h at room temperature. Finally, 50 μl per well luciferin detection reagent was added and plates were incubated for 20 min at room temperature, protected from light. Luminescence was measured with an integration time of 500 ms per well using a SpectaMax M5 plate reader and resulting IC50 values were calculated using GraphPad Prism software.
(§3) In another setting, the DAO and MAO assays were performed in 384-well plates (Greiner) and test compound was added using a Labcyte Echo™ Acoustic Handler for the same final concentrations as in the 96-well setting. Luminescence was measured with BMG LABTECH PHERAstar FS plate reader.

In assay [3] the target is T4, monoamine oxidase B (MAO-B) (Homo sapiens, UniProt P27338).
T4 construct: purchased Sigma M7441
T4 sequence (P27338 1-520): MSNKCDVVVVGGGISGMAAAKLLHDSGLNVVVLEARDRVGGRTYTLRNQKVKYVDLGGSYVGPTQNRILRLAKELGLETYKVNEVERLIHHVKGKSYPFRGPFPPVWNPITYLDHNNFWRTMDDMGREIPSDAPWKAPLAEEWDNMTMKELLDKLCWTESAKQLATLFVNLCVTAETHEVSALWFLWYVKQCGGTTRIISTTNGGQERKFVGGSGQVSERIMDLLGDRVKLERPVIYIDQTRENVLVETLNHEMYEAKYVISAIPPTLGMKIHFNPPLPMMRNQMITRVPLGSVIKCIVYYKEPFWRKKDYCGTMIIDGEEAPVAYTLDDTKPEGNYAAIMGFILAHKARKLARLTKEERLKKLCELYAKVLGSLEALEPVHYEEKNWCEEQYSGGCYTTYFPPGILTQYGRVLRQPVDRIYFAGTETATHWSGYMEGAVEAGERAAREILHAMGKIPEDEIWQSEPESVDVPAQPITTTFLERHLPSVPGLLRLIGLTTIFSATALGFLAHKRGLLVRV
Nature of the assay: Amine oxidase activity assay (MAO-Glo), MAO-B. It is filed as biochemical. The method, then: as §2, §3

For assay [4], the target named is T5, LOX (Sus scrofa, UniProt P45845).
T5 construct: LOX was extracted from pig skin by previously described methods; from tissue; host or cells: pig skin
T5 sequence (P45845 1-249): T2 sequence (P28301 163-411) with D20X, T21X, Y22X, N31Y, S80T, N142S, A188N, Q202K, T224S, D231E
Nature of the assay: LOX isoform activity assay (ROS Glo), LOX. In kind it is biochemical, pig. As to conditions: 1 h incubation with enzyme. The method, then:
as §1

Setting [5] is: 20 hr incubation with enzyme; read-out: LOXL2 IC50 c) 20 hr.

Turning to `CCOc1ccc(N2C[C@@H]3C[C@H]2CN3C(=O)C(F)S(=O)(=O)CCN)cc1` (mixture of isomers) [Example 16, 2-((2-aminoethyl)-sulfonyl)-1-((1S,4S)-5-(4-ethoxyphenyl)-2,5-diazabicyclo-[2.2.1]heptan-2-yl)-2-fluoroethan-1-one], the pIC50 on LOXL2 (setting [5]) is 6.85. Also, the inhibition at 2.5 µM at LOX [1] (2.5 uM (stated in cell), read-out: Cyst LOX (% inhibition) @ 2.5 uM) was 73%.

On to `NCCS(=O)(=O)CCN1CCCN(c2ccc(N3CCS(=O)(=O)CC3)cc2)CC1` [Example 3, 4-(4-(4-(2-((2-aminoethyl)sulfonyl)ethyl)-1,4-diazepan-1-yl)phenyl) thiomorpholine-1,1-dioxide], for which the pIC50 on LOXL2 (20 min incubation with enzyme; read-out: LOXL2 IC50 a) 20 min) was 5.09; in assay [2] it was < 4.00; in assay [3], < 4.00.

For the compound `CCOc1ccc(N2C[C@H]3CN(C(=O)c4cccc(S(=O)(=O)CCN)c4)C[C@@H]2C(C)(C)C3)cc1` [Example 32, (3-((2-aminoethyl)sulfonyl)phenyl)((1S,5S)-6-(4-ethoxyphenyl)-9,9-dimethyl-3,6-diazabicyclo[3.2.2]nonan-3-yl)methanone], the pIC50 on LOX [4] is 4.64; at LOXL2 (setting [5]), 5.52; in assay [2], < 4.00; in assay [3], < 4.00.

In the case of `CCOc1ccc(N2C[C@H]3CN(C(=O)C(CC(C)C)S(=O)(=O)CCN)C[C@@H]2C(C)(C)C3)cc1` (stereo partly drawn) [Example 40, 2-((2-aminoethyl)sulfonyl)-1-((1S,5S)-6-(4-ethoxyphenyl)-9,9-dimethyl-3,6-diazabicyclo[3.2.2]nonan-3-yl)-4-methylpentan-1-one], the pIC50 at LOXL2 (1 hr incubation with enzyme; read-out: LOXL2 IC50 b) 1 hr) was 5.96. Besides, the inhibition at 10 µM at LOX [1] (10 uM, inhibitor added 30 min prior to imaging, read-out: Cyst LOX @ 10 uM (% inhibition)) stood at 79%.
